Results reported in US20220289698A1, “INHIBITORS OF HUMAN ATGL” (Karl-Franzens-Universität Graz, priority 2019, published 2022).

How the values were obtained:
Assay type in all cases: biochemical
rat ATGL = target: T1, rat ATGL (Rattus norvegicus, UniProt P0C548); test: Rat ATGL inhibition, Expi lysates + CGI-58
T1 construct: made in house; host or cells: Expi cells (lysate)
T1 sequence (P0C548 1-478): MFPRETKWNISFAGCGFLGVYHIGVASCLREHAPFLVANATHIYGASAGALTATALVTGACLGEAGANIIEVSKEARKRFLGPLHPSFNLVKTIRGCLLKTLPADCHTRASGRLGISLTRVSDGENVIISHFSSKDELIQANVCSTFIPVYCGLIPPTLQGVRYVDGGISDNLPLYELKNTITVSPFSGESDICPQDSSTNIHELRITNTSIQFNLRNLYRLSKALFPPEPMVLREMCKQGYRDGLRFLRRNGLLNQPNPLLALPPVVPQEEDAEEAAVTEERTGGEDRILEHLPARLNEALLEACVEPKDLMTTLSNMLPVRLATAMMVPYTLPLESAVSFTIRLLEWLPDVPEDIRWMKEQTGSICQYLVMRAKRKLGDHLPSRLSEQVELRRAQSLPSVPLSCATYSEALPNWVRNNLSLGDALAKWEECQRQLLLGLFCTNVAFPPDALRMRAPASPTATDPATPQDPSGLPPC
Procedure: (§1) Lysates from Expi cells overexpressing ATGL from rat (Rattus norvegicus) were incubated with recombinant purified ATGL co-activator CGI-58 and ATGL inhibitors at 50 μM. Subsequently, substrate containing radiolabeled triolein was added and liberated FA were extracted and quantified by liquid scintillation. Inhibitors were dissolved in DMSO which was used as control. Samples were measured in triplicates.

goat ATGL = test: Goat ATGL inhibition, Expi lysates + CGI-58
Procedure: as §1, with “goat (Capra hircus)” for “rat (Rattus norvegicus)”

hPNPLA9 = target: T2, hPNPLA9 (Homo sapiens, UniProt O60733); test: hPNPLA9 off-target inhibition; conditions: read-out: hPNPLA9 off-target inhibition [% inhibition at 100 μM]
T2 construct: made in house; host or cells: Expi cells (lysate)
T2 sequence (O60733 1-806): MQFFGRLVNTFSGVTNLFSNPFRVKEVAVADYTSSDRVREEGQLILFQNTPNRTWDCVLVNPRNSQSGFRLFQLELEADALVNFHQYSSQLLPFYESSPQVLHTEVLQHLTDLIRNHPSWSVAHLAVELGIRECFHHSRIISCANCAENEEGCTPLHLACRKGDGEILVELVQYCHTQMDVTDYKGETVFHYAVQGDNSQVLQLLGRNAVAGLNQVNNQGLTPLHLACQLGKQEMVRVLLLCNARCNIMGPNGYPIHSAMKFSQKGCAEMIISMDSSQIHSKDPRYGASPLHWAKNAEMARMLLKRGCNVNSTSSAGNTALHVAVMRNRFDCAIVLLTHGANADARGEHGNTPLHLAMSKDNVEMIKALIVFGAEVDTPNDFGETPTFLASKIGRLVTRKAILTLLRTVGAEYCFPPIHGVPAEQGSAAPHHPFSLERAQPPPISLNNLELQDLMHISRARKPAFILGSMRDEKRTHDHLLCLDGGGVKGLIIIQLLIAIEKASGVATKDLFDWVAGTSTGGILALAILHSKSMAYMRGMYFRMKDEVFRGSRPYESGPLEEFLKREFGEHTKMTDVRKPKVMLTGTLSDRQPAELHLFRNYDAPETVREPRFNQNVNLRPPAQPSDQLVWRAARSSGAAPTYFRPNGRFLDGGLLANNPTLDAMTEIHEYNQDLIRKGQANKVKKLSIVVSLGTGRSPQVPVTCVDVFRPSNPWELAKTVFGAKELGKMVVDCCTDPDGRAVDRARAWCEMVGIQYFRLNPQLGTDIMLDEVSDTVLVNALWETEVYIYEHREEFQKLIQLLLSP
Procedure: Expi lysates expressing hPNPLA9 were treated with 100 μM Inhibitors and incubated with 1 mM C8 monoacylglycerol substrate (containing 5 mM CHAPS, 50 mM NaPh buffer ph7.4, 0.15 M NaCl) for 40 min. Glycerol release was determined via Free glycerol reagent (Sigma Aldrich). Samples measured in triplicates, […]

| SMILES | inhibition at 50 µM (rat ATGL) [%] | goat ATGL inhibition [% inhibition at 50 μM (goat ATGL) [%] | inhibition at 100 µM (hPNPLA9) [%] |
| --- | --- | --- | --- |
| CCOc1ccc(-c2nc(C(=O)OCc3ccc(Cl)s3)cs2)cc1 [Example 223, (5-Chlorothiophen-2-yl)methyl 2-(4-ethoxyphenyl)thiazole-4-carboxylate] | 40 | 40 | 0 |
| CCOc1ccc(-c2nc(C(=O)OCc3cccs3)cs2)cc1 [Example 152, Thiophen-2-ylmethyl 2-(4-ethoxyphenyl)thiazole-4-carboxylate] | 10 | 0 | 0 |
| CC#CCOC(=O)c1csc(-c2ccc(OCC)cc2)n1 [Example 209, But-2-yn-1-yl 2-(4-ethoxyphenyl)thiazole-4-carboxylate] | 40 | 25 | 0 |
| CCOc1ccc(-c2nc(C(=O)OCc3ccc(Br)s3)cs2)cc1 [Example 224, (5-Bromothiophen-2-yl)methyl 2-(4-ethoxyphenyl)thiazole-4-carboxylate] | 40 | 40 | 0 |
| C#C[C@@H](C)OC(=O)c1csc(-c2ccc(OCC)cc2)n1 [Example 211, (R)-But-3-yn-2-yl 2-(4-ethoxyphenyl)thiazole-4-carboxylate] | 50 | 30 | 0 |
| CCOc1ccc(-c2nc(C(=O)OCc3ccoc3)cs2)cc1 [Example 216, Furan-3-ylmethyl 2-(4-ethoxyphenyl)thiazole-4-carboxylate] | 50 | 50 | 0 |
| CCCCOC(=O)c1csc(-c2ccc(OCC)cc2)n1 [Example 212, Butyl 2-(4-ethoxyphenyl)thiazole-4-carboxylate] | 40 | 20 | 0 |
| CCOc1ccc(-c2cccc(C(=O)OCc3ccco3)n2)cc1 [Example 190, Furan-2-ylmethyl 6-(4-ethoxyphenyl)picolinate] | 40 | 25 | 0 |
| CCOc1ccc(-c2cccc(C(=O)OCc3cccs3)n2)cc1 [Example 189, Thiophen-2-ylmethyl 6-(4-ethoxyphenyl)picolinate] | 10 | 50 | 0 |
| CCOc1ccc(-c2cc(OC)cc(C(=O)OC(C)C)n2)cc1 [Example 35] | – | – | 0 |
| C#C[C@H](C)OC(=O)c1csc(-c2ccc(OCC)cc2)n1 [Example 210, (S)-But-3-yn-2-yl 2-(4-ethoxyphenyl)thiazole-4-carboxylate] | 15 | 20 | 0 |
| COc1cc(C(=O)OC(C)C)nc(-c2ccc(OC(C)C)cc2)c1 [Example 201, Isopropyl 6-(4-isopropoxyphenyl)-4-methoxypicolinate] | 0 | 0 | 0 |
| CCOc1ccc(-c2nc(C(=O)OCc3ccsc3)cs2)cc1 [Example 215, Thiophen-3-ylmethyl 2-(4-ethoxyphenyl)thiazole-4-carboxylate] | 50 | 50 | 0 |
